From US8518952B2, “6 substituted 2-heterocyclylamino pyrazine compounds as CHK-1 inhibitors” (Pfizer Inc., priority 2008, dated 2013) come the findings set out here.

One may read the EC50 as the midpoint of the concentration-response curve. By Ki is commonly meant a measure of affinity in units of concentration, obtained from inhibition or displacement.

Structures are written as SMILES.

For one test, the system named is Mia Paca-2 cells. Kind of test: Histone H3 (Ser10) phosphorylation ELISA, abrogation of camptothecin-induced G2 arrest (CHK-1 cellular assay). In kind it is cell-based. The settings on record: Homo sapiens, camptothecin 8 hrs, then compound with nocodozole 16 hours. On the procedure: The Histone H3 phosphorylation ELISA assay detects cells entering mitosis and represents the primary in vitro cell-based assay used to measure the cellular potency of compounds in abrogating the G2 check point induced by DNA damage in HeLa cells or MiaPaCa cells. The candidate substances were assayed for potency in their ability to inhibit camptothecin-induced G2 arrest, as measured by an increase in Histone H3 phosphorylation on Ser10, a marker of entry into mitosis.
The PathScan Phospho-Histone H3 (Ser10) Sandwich ELISA kit was used (Cell Signaling, #7155) and the assay was performed according to manufacturer recommendations. Tissue culture plates were seeded with HeLa cells or MiaPaCa Cells and allowed to attach overnight. The cells were then treated with camptothecin to induce DNA damage for 8 hrs. Candidate substances or diluent were then added in the presence of nocodozole for 16 hours. Cells were then lysed with buffer from Assay Designs (#80-1114) supplemented with protease inhibitors and frozen overnight. The fresh whole cell lysates were then thawed and added to the ELISA plate with shaking for 3 hours. Between all subsequent steps plates were washed 4 times with PBST. Biotinylated phospho Histone H3 (ser10) detection antibody was added for 1 hour, followed by addition of horseradish peroxidase-linked streptavidin secondary antibody for 1 hour. Color development of the antibody was performed with addition of TMB substrate and incubation for 2 minutes on a plate shaker. Stop solution was added and plates were read with absorbance at 450 nm on a spectrophotometer. EC50 values were calculated by sigmoid curve fitting using a four-parameter analysis.
Under the “Ki” column, data entries in the format of “%” are percent inhibition data where no Ki data is available. Data entry under the “EC50” column with an * are data obtained using Mia Paca-2 cells rather than HeLa cells. Data is not available where noted as n/a.
(In general: In an ELISA, binding on a coated surface is turned into a signal by an enzyme label.)

The target in a further test is T1, CHK1 (kinase domain) (Homo sapiens, UniProt O14757).
T1 construct: a solution containing 1 nM of CHK1 (kinase domain)
T1 sequence (O14757 9-265 limits assumed): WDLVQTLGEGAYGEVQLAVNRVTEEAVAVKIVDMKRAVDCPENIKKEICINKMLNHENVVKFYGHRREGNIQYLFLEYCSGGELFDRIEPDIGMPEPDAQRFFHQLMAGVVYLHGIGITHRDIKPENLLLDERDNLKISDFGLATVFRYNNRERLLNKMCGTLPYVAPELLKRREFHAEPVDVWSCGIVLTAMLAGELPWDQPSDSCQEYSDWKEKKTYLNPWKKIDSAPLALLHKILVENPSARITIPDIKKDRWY
The test can be described thus: CHK1 Ki determination, spectrophotometric coupled (pyruvate kinase/lactate dehydrogenase) assay. Particulars: CHK-1 kinase domain; for Ki: 150 uM ATP, 125 uM Syntide 2. In kind it is biochemical. The essentials: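 Ki values, or % inhibition where no Ki was obtained, come from a tight-binding fit that uses active enzyme concentration and the ATP Km. Rates were followed as NADH loss at 340 nm, with ADP production coupled via pyruvate kinase and lactate dehydrogenase. Reactions with ATP (150 uM) and Syntide 2 (125 uM) were started after the CHK1 kinase domain had stood with inhibitor for 15 min.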

The mark [1] stands for this setting: Mia Paca-2 cells (entries marked *).
Setting [2] is: MIA PaCa-2, Mia Paca-2 cells (entries marked *).

`C[C@H]1NCCC[C@H]1Nc1cncc(-c2cnc3cnccn23)n1` [Example 163, 6-(imidazo[1,2-a]pyrazin-3-yl)-N-[(2R,3R)-2-methylpiperidin-3-yl]pyrazin-2-amine] yielded an EC50 with Mia Paca-2 cells (setting [1]) of 248 nM. Moreover, the Ki on CHK1 (kinase domain) came to 14 nM.

In the test with Mia Paca-2 cells (setting [1]), `C[C@@H]1CNC[C@@H]1Nc1cncc(-c2cnc3sccn23)n1` [Example 181, 6-(imidazo[2,1-b][1,3]thiazol-5-yl)-N-[(3R,4R)-4-methylpyrrolidin-3-yl]pyrazin-2-amine] yielded a concentration giving a half-maximal response (EC50) of 26.1 nM. Besides, on CHK1 (kinase domain), the affinity corresponds to a Ki of 7.2 nM.

In the test with Mia Paca-2 cells (setting [1]), `COC[C@@H]1C[C@@H](Nc2cncc(-c3cnc4cc(C#N)ccn34)n2)CN1` [Example 188, 3-(6-{[(3R,5S)-5-(methoxymethyl)pyrrolidin-3-yl]amino}pyrazin-2-yl)imidazo[1,2-a]pyridine-7-carbonitrile] gave an EC50 of 663 nM. The compound also had a Ki at CHK1 (kinase domain) of 57.8 nM.

The compound `C[C@@H]1C[C@@H](Nc2cncc(-c3cnc4cc(C#N)ccn34)n2)CN1` [Example 189, 3-(6-{[(3R,5R)-5-methylpyrrolidin-3-yl]amino}pyrazin-2-yl)imidazo[1,2-a]pyridine-7-carbonitrile] registered an EC50 in the test on Mia Paca-2 cells (setting [1]) of 626 nM. At CHK1 (kinase domain), this compound showed a Ki of 17.9 nM.

`CCCOC[C@@H]1C[C@@H](Nc2cncc(-c3cnc4ccccn34)n2)CN1` [Example 192, 6-(imidazo[1,2-a]pyridin-3-yl)-N-[(3R,5S)-5-(propoxymethyl)pyrrolidin-3-yl]pyrazin-2-amine] came in with an EC50 with Mia Paca-2 cells (setting [1]) of 187 nM. The affinity on CHK1 (kinase domain) corresponds to a Ki of 29.2 nM.

Take `c1ccn2c(-c3cncc(N[C@H]4CNC[C@H]4C4CC4)n3)cnc2c1` [Example 197, N-[(3R,4R)-4-cyclopropylpyrrolidin-3-yl]-6-(imidazo[1,2-a]pyridin-3-yl)pyrazin-2-amine]: in the test with Mia Paca-2 cells (setting [1]), the EC50 was found to be 4.82 nM. Also, at CHK1 (kinase domain), the affinity corresponds to a Ki of 3.05 nM.

In turn, `Fc1cccn2ncc(-c3cncc(N[C@@H]4CCCNC4)n3)c12` [Example 199, 6-(4-fluoropyrazolo[1,5-a]pyridin-3-yl)-N-[(3R)-piperidin-3-yl]pyrazin-2-amine] registered a concentration giving a half-maximal response (EC50) in the test with Mia Paca-2 cells (setting [1]) of 106 nM. Also, on CHK1 (kinase domain), the affinity corresponds to a Ki of 7.82 nM.

On to `C[C@@H]1CNC[C@@H]1Nc1cncc(-c2cnn3cccc(F)c23)n1` [Example 200, 6-(4-fluoropyrazolo[1,5-a]pyridin-3-yl)-N-[(3R,4R)-4-methylpyrrolidin-3-yl]pyrazin-2-amine], for which, in the test with Mia Paca-2 cells (setting [1]), the response was half-maximal at 127 nM (EC50). Further, at CHK1 (kinase domain) (inhibitor concentration not given), the “percent inhibition (where no Ki data is available)” value is listed as 26.1%^.

On to `O[C@H]1CNC[C@H](Nc2cncc(-c3cnc4ccccn34)n2)C1` [Example 203, (3R,5R)-5-{[6-(imidazo[1,2-a]pyridin-3-yl)pyrazin-2-yl]amino}piperidin-3-ol], for which the EC50 in the test with Mia Paca-2 cells (setting [2]) came out at 134 nM. Also, at CHK1 (kinase domain), the affinity, expressed as Ki, was 4.09 nM.

Take `C[C@@H]1CCNC[C@@H]1Nc1cncc(-c2cnc3ccccn23)n1` [Example 204, 6-(imidazo[1,2-a]pyridin-3-yl)-N-[(3R,4R)-4-methylpiperidin-3-yl]pyrazin-2-amine]: in the test on Mia Paca-2 cells (setting [2]), the midpoint of the response, the EC50, lay at 74.9 nM. This compound also had a Ki on CHK1 (kinase domain) of 54.5 nM.

Compound `C[C@@H]1CCNC[C@@H]1Nc1cncc(-c2cnc3cc(Cl)ccn23)n1` [Example 205, 6-(7-chloroimidazo[1,2-a]pyridin-3-yl)-N-[(3R,4R)-4-methylpiperidin-3-yl]pyrazin-2-amine] showed an EC50 in the test on Mia Paca-2 cells (setting [2]) of 55.2 nM. Further, on CHK1 (kinase domain), the affinity, expressed as Ki, was 38.3 nM.

For `C[C@@H]1CCNC[C@@H]1Nc1cncc(-c2cnn3ccccc23)n1` [Example 206, N-[(3R,4R)-4-methylpiperidin-3-yl]-6-(pyrazolo[1,5-a]pyridin-3-yl)pyrazin-2-amine], it took 240 nM to reach a half-maximal effect with Mia Paca-2 cells (setting [1]) (EC50). This compound showed a Ki on CHK1 (kinase domain) of 48.2 nM.

In the case of `COc1ccn2c(-c3cncc(N[C@H]4CNC[C@H]4C4CC4)n3)cnc2c1` [Example 211, N-[(3R,4R)-4-cyclopropylpyrrolidin-3-yl]-6-(7-methoxyimidazo[1,2-a]pyridin-3-yl)pyrazin-2-amine], the EC50 with Mia Paca-2 cells (setting [2]) amounted to 4.59 nM. Further, at CHK1 (kinase domain), the Ki came to 2.54 nM.

With `CCOc1ccc2c(c1)ncn2-c1cncc(N[C@@H]2CCCNC2)n1` [Example 214, 6-(5-ethoxy-1H-benzimidazol-1-yl)-N-[(3R)-piperidin-3-yl]pyrazin-2-amine], the EC50 with Mia Paca-2 cells (setting [1]) came to 12.2 nM. Moreover, the affinity on CHK1 (kinase domain), expressed as Ki, was 0.935 nM.

As for `CCOc1ccc2c(c1)ncn2-c1cncc(N[C@@H]2CCNC2)n1` [Example 217, 6-(5-ethoxy-1H-benzimidazol-1-yl)-N-[(3R)-pyrrolidin-3-yl]pyrazin-2-amine], in the test with Mia Paca-2 cells (setting [1]), the EC50 came out at 36.4 nM. The same compound came in with a Ki on CHK1 (kinase domain) of 6.99 nM.

Compound `C[C@@H]1NCCC[C@H]1Nc1cncc(-c2cnc3ccc(Cl)cn23)n1` [Example 225, 6-(6-chloroimidazo[1,2-a]pyridin-3-yl)-N-[(2S,3R)-2-methylpiperidin-3-yl]pyrazin-2-amine] registered an EC50 with Mia Paca-2 cells (setting [2]) of 64.9 nM. At CHK1 (kinase domain), this compound registered an inhibition constant (Ki) of 17.9 nM.

Take `C[C@H]1NCCC[C@H]1Nc1cncc(-c2cnc3ccc(Cl)cn23)n1` [Example 226, 6-(6-chloroimidazo[1,2-a]pyridin-3-yl)-N-[(2R,3R)-2-methylpiperidin-3-yl]pyrazin-2-amine]: in the test with Mia Paca-2 cells (setting [2]), the EC50 was determined as 7.17 nM. This compound displayed a Ki on CHK1 (kinase domain) of 4.6 nM.

In turn, `C[C@@H]1NCCC[C@H]1Nc1cncc(-c2cnc3ccc(C(F)(F)F)cn23)n1` [Example 227, N-[(2S,3R)-2-methylpiperidin-3-yl]-6-[6-(trifluoromethyl)imidazo[1,2-a]pyridin-3-yl]pyrazin-2-amine] yielded a half-maximal effective concentration (EC50) with Mia Paca-2 cells (setting [2]) of 1000 nM. This compound also came in with a Ki on CHK1 (kinase domain) of 92 nM.

`C[C@H]1NCCC[C@H]1Nc1cncc(-c2cnc3ccc(C(F)(F)F)cn23)n1` [Example 228, N-[(2R,3R)-2-methylpiperidin-3-yl]-6-[6-(trifluoromethyl)imidazo[1,2-a]pyridin-3-yl]pyrazin-2-amine] yielded an EC50 in the test on Mia Paca-2 cells (setting [2]) of 24.5 nM. This compound had a Ki at CHK1 (kinase domain) of 6.5 nM.

Consider `C[C@@H]1CNC[C@@H]1Nc1cncc(-c2cnc3ccc(Cl)cn23)n1` [Example 229, 6-(6-chloroimidazo[1,2-a]pyridin-3-yl)-N-[(3R,4R)-4-methylpyrrolidin-3-yl]pyrazin-2-amine], for which it took 9.75 nM to reach a half-maximal effect with Mia Paca-2 cells (setting [1]) (EC50). Also, the Ki on CHK1 (kinase domain) was 4.4 nM.

Compound `FC1(F)CCNCC1Nc1cncc(-c2cnc3ccc(Cl)cn23)n1` (stereo not drawn) [Example 230, 6-(6-chloroimidazo[1,2-a]pyridin-3-yl)-N-(4,4-difluoropiperidin-3-yl)pyrazin-2-amine] had a concentration for a half-maximal effect (EC50) in the test with Mia Paca-2 cells (setting [2]) of 76.8 nM. Also, the Ki at CHK1 (kinase domain) is 9.2 nM.

`FC(F)(F)c1ccc2ncc(-c3cncc(NC4CNCCC4(F)F)n3)n2c1` (stereo not drawn) [Example 231, N-(4,4-difluoropiperidin-3-yl)-6-[6-(trifluoromethyl)imidazo[1,2-a]pyridin-3-yl]pyrazin-2-amine] returned an EC50 with Mia Paca-2 cells (setting [2]) of 20000 nM. Moreover, at CHK1 (kinase domain), the affinity corresponds to a Ki of 28.6 nM.

`CC(C)(O)c1ccc2ncc(-c3cncc(N[C@@H]4CCCNC4)n3)n2c1` [Example 232, 2-(3-{6-[(3R)-piperidin-3-ylamino]pyrazin-2-yl}imidazo[1,2-a]pyridin-6-yl)propan-2-ol] registered an EC50 in the test on Mia Paca-2 cells (setting [2]) of 100 nM. At CHK1 (kinase domain), the Ki stood at 2.6 nM.

Take `Nc1ccc2ncc(-c3cncc(N[C@@H]4CCCNC4)n3)n2c1` [Example 233, 3-{6-[(3R)-piperidin-3-ylamino]pyrazin-2-yl}imidazo[1,2-a]pyridin-6-amine]: the EC50 in the test with Mia Paca-2 cells (setting [2]) came out at 75.5 nM. The Ki on CHK1 (kinase domain) was 3.4 nM.
